Results on 1 substance are retold here after article PMC2747021, “Synergistic Antibacterial and Anti-Inflammatory Activity of Temporin A and Modified Temporin B In Vivo” (PLoS ONE, 2009).

For assay [1], the system named is Staphilococcus.aureus A170. Conditions: single peptide; MIC100, MH broth, about 10^6 CFU/ml, 37°C 20 h, absorbance 600 nm, triplicate.
A further assay relates to Listeria monocytogenes. Conditions: 20 h.
Assay [2] relates to Staphilococcus .aureus A172. Conditions: 20 h.
A further assay has as its system Escherichian coli. Conditions: 20 h.
Assay [3] concerns Staphilococcus aureus 007. Conditions: 20 h.
Assay [4] has as its system Salmonella enterica serovar Paratyphi. Nature of the assay: Antibacterial activity, MIC100 broth dilution. It is filed as cell-based. Conditions: single peptide; MIC100, MH broth, about 10^6 CFU/ml, 37°C 20 h, absorbance 600 nm, triplicate. Background: Dilution methods test growth across graded concentrations, often in twofold steps.

For orientation: MIC means the smallest concentration in the dilution series that meets the test's criterion for growth inhibition.

No end group written: not given here.

Regarding KKYLLPIVGNLLKSLL-NH2 [TB-YK], the MIC in assay [1] worked out at 20 µg/mL; against Listeria monocytogenes, 10 µg/mL; in assay [2], 25 µg/mL; in the assay with Escherichian coli, 20 µg/mL; in assay [3] it was 10 µg/mL; in assay [4], 20 µg/mL.
